Results taken from patent US20110124501A1, “Active compound combinations” (Bayer CropScience AG, priority 2009, published 2011).
Where “and” joins values, the source holds several entries; their conditions need not be identical. Identical values can stand only once. Counter-ions that a name gives are not always drawn. Like-named read-outs stand apart in the source and are kept apart here.

Tests used:
Leptosphaeria nodorum = Leptosphaeria nodorum test (wheat)/preventive; assay type: in vivo; settings: preventive, evaluated 8 days after inoculation
Septoria tritici = assay: Septoria tritici-test (wheat)/preventive; assay type: in vivo; settings: preventive, evaluated 21 days after inoculation
Phytophthora infestans = assay type: in vivo
Botrytis cinerea = assay: Botrytis test (beans)/preventive
Method: Botrytis Test (Beans)/Preventive
(§1) • Solvent: 24.5 parts by weight of acetone • 24.5 parts by weight of dimethylacetamide • Emulsifier: 1 part by weight of alkylaryl polyglycol ether
After the spray coating has dried on, 2 small pieces of agar covered with growth of Botrytis cinerea are placed on each leaf. The inoculated plants are placed in a darkened chamber at 20° C. and a relative atmospheric humidity of 100%.
2 days after the inoculation, the size of the lesions on the leaves is evaluated.

Sphaerotheca fuliginea = assay: Sphaerotheca test (cucumbers)/preventive; assay type: in vivo
Venturia inaequalis = assay: Venturia test (apples)/preventive
Method: Venturia Test (Apples)/Preventive
as §1
After the spray coating has dried on, the plants are inoculated with an aqueous conidia suspension of the causal agent of apple scab (Venturia inaequalis) and then remain for 1 day in an incubation cabinet at approximately 20° C. and a relative atmospheric humidity of 100%.
The plants are then placed in a greenhouse at approximately 21° C. and a relative atmospheric humidity of approximately 90%.
The test is evaluated 10 days after the inoculation.

Alternaria solani = assay: Alternaria test (tomatoes)/preventive; assay type: in vivo
Pyrenophora teres = assay: Pyrenophora teres-test (barley)/preventive; assay type: in vivo; settings: preventive, evaluated 8 days after inoculation
[1] = tested on: Blumeria graminis fsp. hordei; assay: Blumeria test (barley)/preventive; assay type: in vivo
From the text: After the spray coating has been dried, the plants are dusted with spores of Blumeria graminis fsp. hordei.

Plasmopara viticola = assay: Plasmopara test (grapevines)/preventive; assay type: in vivo
Puccinia triticina = assay: Puccinia triticina-test (wheat)/preventive; assay type: in vivo; settings: preventive, evaluated 8 days after inoculation

Molecule: Fc1ccc([C@]2(Cn3cncn3)O[C@H]2c2ccccc2Cl)cc1 (racemic) [(1.12), epoxiconazole]
- Efficacy in % found (Leptosphaeria nodorum; 31.25 ppm a.i.): 71%
- Efficacy in % found (Septoria tritici; 62.5 ppm a.i.): 71%

Molecule: C[C@@]1(c2ccc(Oc3ccccc3)cc2)OC(=O)N(Nc2ccccc2)C1=O (racemic) [(3.6), famoxadone]
- Efficacy in % found (Phytophthora infestans; application rate 0.4 ppm a.i.): 0%

Molecule: CC1(C(=O)Nc2ccc(O)c(Cl)c2Cl)CCCCC1 [(1.16), fenhexamid]
- Efficacy in % found (Botrytis cinerea; application rate 10 ppm a.i.): 0%

Molecule: O=c1c2cc(F)ccc2nc(-n2cncn2)n1-c1ccc(Cl)cc1Cl [(1.19), fluquinconazole]
- Efficacy in % found (Sphaerotheca fuliginea; application rate 1 ppm a.i.): 78%
- Efficacy in % found (Leptosphaeria nodorum; 31.25 ppm a.i.): 43%
- Efficacy in % found (Septoria tritici; 62.5 ppm a.i.): 86%

Molecule: Cn1cc(C(=O)Nc2ccc(F)cc2-c2ccc(Cl)c(Cl)c2)c(C(F)F)n1 [(2.2), bixafen]
- Efficacy in % found (Venturia inaequalis; application rate 1 ppm a.i.): 64%

Molecule: O=C(NCCc1ncc(C(F)(F)F)cc1Cl)c1ccccc1C(F)(F)F [(2.6), fluopyram]
- Efficacy in % found (Alternaria solani; application rate 1 ppm a.i.): 55%
- Efficacy in % found (Sphaerotheca fuliginea; application rate 4 ppm a.i.): 0%
- Efficacy in % found (Pyrenophora teres; 31.25 ppm a.i.): 88%
- Efficacy in % found (Septoria tritici; 31.25 ppm a.i.): 80%
- Efficacy in % found (Venturia inaequalis; application rate 2 ppm a.i.): 28%

Molecule: CC(C)C1C2CCC1c1c(NC(=O)c3cn(C)nc3C(F)F)cccc12 (stereo not drawn) [(2.10), isopyrazam]
- Efficacy in % found (Alternaria solani; application rate 0.5 ppm a.i.): 50%
- Efficacy in % found (Venturia inaequalis; application rate 1 ppm a.i.): 49%

Molecule: Cc1nn(C)c(F)c1C(=O)Nc1ccccc1C(C)CC(C)C (stereo not drawn) [(2.19), penflufen]
- Efficacy in % found (Alternaria solani; application rate 1 ppm a.i.): 30%
- Efficacy in % found (Sphaerotheca fuliginea; application rate 4 ppm a.i.): 0%
- Efficacy in % found ([1]; application rate 125 ppm a.i.): 67% and 56%
- Efficacy in % found (Venturia inaequalis; application rate 4 ppm a.i.): 0%

Molecule: CC(C)CC(C)c1sccc1NC(=O)c1cn(C)nc1C(F)(F)F (stereo not drawn) [(2.20), penthiopyrad]
- Efficacy in % found (Alternaria solani; application rate 0.5 ppm a.i.): 53%
- Efficacy in % found (Venturia inaequalis; application rate 2 ppm a.i.): 41%

Molecule: Cn1cc(C(=O)Nc2ccccc2C2CC2C2CC2)c(C(F)F)n1 (stereo not drawn) [(2.21), sedaxane]
- Efficacy in % found (Alternaria solani; application rate 1 ppm a.i.): 40%
- Efficacy in % found (Venturia inaequalis; application rate 2 ppm a.i.): 69%

Molecule: Cn1cc(C(=O)Nc2ccccc2-c2cc(F)c(F)c(F)c2)c(C(F)F)n1 [(2.45), 3-(difluoromethyl)-1-methyl-N-(3′,4′,5′-trifluorobiphenyl-2-yl)-1H-pyrazole-4-carboxamide]
- Efficacy in % found (Sphaerotheca fuliginea; application rate 2 ppm a.i.): 30%

Molecule: CO/C=C(/C(=O)OC)c1ccccc1Oc1cc(Oc2ccccc2C#N)ncn1 [(3.2), azoxystrobin]
- Efficacy in % found (Alternaria solani; application rate 0.25 ppm a.i.): 50%
- Efficacy in % found (Sphaerotheca fuliginea; application rate 1 ppm a.i.): 10%
- Efficacy in % found (Leptosphaeria nodorum; 31.25 ppm a.i.): 67%
- Efficacy in % found (Leptosphaeria nodorum; 62.5 ppm a.i.): 86%

Molecule: Cc1ccc(-c2c(Cl)nc(C#N)n2S(=O)(=O)N(C)C)cc1 [(3.3), cyazofamid]
- Efficacy in % found (Plasmopara viticola; application rate 0.4 ppm a.i.): 0%

Molecule: CSC1=N[C@@](C)(c2ccccc2)C(=O)N1Nc1ccccc1 [(3.7), fenamidone]
- Efficacy in % found (Phytophthora infestans; application rate 0.2 ppm a.i.): 0%

Molecule: CO/N=C(/C1=NOCCO1)c1ccccc1Oc1ncnc(Oc2ccccc2Cl)c1F [(3.8), fluoxastrobin]
- Efficacy in % found (Alternaria solani; application rate 2 ppm a.i.): 70%
- Efficacy in % found (Leptosphaeria nodorum; 31.25 ppm a.i.): 71%
- Efficacy in % found (Septoria tritici; 62.5 ppm a.i.): 71%
- Efficacy in % found (Venturia inaequalis; application rate 0.5 ppm a.i.): 88%

Molecule: COC(=O)N(OC)c1ccccc1COc1ccn(-c2ccc(Cl)cc2)n1 [(3.13), pyraclostrobin]
- Efficacy in % found (Sphaerotheca fuliginea; application rate 1 ppm a.i.): 0%
- Efficacy in % found (Leptosphaeria nodorum; 31.25 ppm a.i.): 57%
- Efficacy in % found (Puccinia triticina; 62.5 ppm a.i.): 63%

Molecule: CON=C(C(=O)OC)c1ccccc1CON=C(C)c1cccc(C(F)(F)F)c1 [(3.17), trifloxystrobin]
- Efficacy in % found (Alternaria solani; application rate 2 ppm a.i.): 60%
- Efficacy in % found (Sphaerotheca fuliginea; application rate 2 ppm a.i.): 27%
- Efficacy in % found (Pyrenophora teres; 62.5 ppm a.i.): 75%
- Efficacy in % found (Puccinia triticina; 62.5 ppm a.i.): 78%

Molecule: CCC(C)(NC(=O)c1cc(Cl)c(C)c(Cl)c1)C(=O)CCl (stereo not drawn) [(4.9), zoxamide]
- Efficacy in % found (Plasmopara viticola; application rate 0.4 ppm a.i.): 0%

Molecule: N#Cc1c(Cl)c(Cl)c(Cl)c(C#N)c1Cl [(5.4), chlorothalonil]
- Efficacy in % found (Alternaria solani; application rate 50 ppm a.i.): 24%
- Efficacy in % found (Venturia inaequalis; application rate 25 ppm a.i.): 83%

Molecule: O=C1c2ccccc2C(=O)N1SC(Cl)(Cl)Cl [(5.9), folpet]
- Efficacy in % found (Botrytis cinerea; application rate 12.5 ppm a.i.): 11%

Molecule: [Cl-].[Cu+2].[Cu+2].[OH-].[OH-].[OH-] [(5.15), copper oxychloride]
- Efficacy in % found (Alternaria solani; application rate 50 ppm a.i.): 41%
- Efficacy in % found (Venturia inaequalis; application rate 50 ppm a.i.): 40%

Molecule: [Cu+2].[OH-].[OH-] [(5.16), copper hydroxide]
- Efficacy in % found (Alternaria solani; application rate 50 ppm a.i.): 47%
- Efficacy in % found (Venturia inaequalis; application rate 25 ppm a.i.): 57%

Molecule: Cc1cc(C)nc(Nc2ccccc2)n1 [(7.7), pyrimethanil]
- Efficacy in % found (Botrytis cinerea; application rate 50 ppm a.i.): 11%

Molecule: COc1ccc(C(=CC(=O)N2CCOCC2)c2ccc(Cl)cc2)cc1OC [(9.2), dimethomorph]
- Efficacy in % found (Plasmopara viticola; application rate 0.2 ppm a.i.): 0%

Molecule: Cc1ccc(C(C)NC(=O)[C@@H](NC(=O)OC(C)C)C(C)C)cc1 (stereo partly drawn) [(9.4), iprovalicarb]
- Efficacy in % found (Plasmopara viticola; application rate 0.4 ppm a.i.): 0%

Molecule: C#CCOc1ccc(CCNC(=O)C(OCC#C)c2ccc(Cl)cc2)cc1OC (stereo not drawn) [(9.5), mandipropamid]
- Efficacy in % found (Plasmopara viticola; application rate 0.1 ppm a.i.): 14%
- Efficacy in % found (Plasmopara viticola; application rate 0.2 ppm a.i.): 25%

Molecule: CCCOC(=O)NCCCN(C)C [(10.11), propamocarb-hydrochloride]
- Efficacy in % found (Phytophthora infestans; application rate 10 ppm a.i.): 0%

Molecule: COC(=O)[C@@H](C)N(C(=O)Cc1ccccc1)c1c(C)cccc1C [(12.2), benalaxyl-M]
- Efficacy in % found (Plasmopara viticola; application rate 0.2 ppm a.i.): 0%
- Efficacy in % found (Plasmopara viticola; application rate 0.4 ppm a.i.): 0%

Molecule: COCC(=O)N(c1c(C)cccc1C)[C@H](C)C(=O)OC [(12.10), metalaxyl-M]
- Efficacy in % found (Plasmopara viticola; application rate 0.4 ppm a.i.): 57%

Molecule: O=[N+]([O-])c1cc(C(F)(F)F)c(Cl)c([N+](=O)[O-])c1Nc1ncc(C(F)(F)F)cc1Cl [(14.2), fluazinam]
- Efficacy in % found (Phytophthora infestans; application rate 0.5 ppm a.i.): 0%

Molecule: CCCCCCCCc1c(CC)nc2ncnn2c1N [(15.1), ametoctradin]
- Efficacy in % found (Phytophthora infestans; application rate 0.5 ppm a.i.): 0%

Molecule: CCNC(=O)NC(=O)/C(C#N)=N/OC [(15.7), cymoxanil]
- Efficacy in % found (Phytophthora infestans; application rate 1 ppm a.i.): 0%

Molecule: O=C(NCc1ncc(C(F)(F)F)cc1Cl)c1c(Cl)cccc1Cl [(15.17), fluopicolide]
- Efficacy in % found (Plasmopara viticola; application rate 0.4 ppm a.i.): 43%

Molecule: CCO[PH](=O)O [(15.20), fosetyl-Al]
- Efficacy in % found (Phytophthora infestans; application rate 10 ppm a.i.): 3%

Molecule: C#CCCOC(=O)Nc1cccc(CO/N=C(/c2ccccc2)c2nnnn2C)n1 [(15.96), but-3-yn-1-yl {6-[({[(Z)-(1-methyl-1H-tetrazol-5-yl)(phenyl)methylene]amino}oxy)methyl]pyridin-2-yl}carbamate]
- Efficacy in % found (Phytophthora infestans; application rate 0.2 ppm a.i.): 53%
- Efficacy in % found (Plasmopara viticola; application rate 0.4 ppm a.i.): 46%

Molecule: O=C(OCc1c(F)cccc1Cl)c1csc(C2CCN(C(=O)Cn3nc(C(F)F)cc3C(F)F)CC2)n1 [(I-16)]
- Efficacy in % found (Phytophthora infestans; application rate 0.2 ppm a.i.): 70%
- Efficacy in % found (Phytophthora infestans; application rate 0.4 ppm a.i.): 61% and 74%
- Efficacy in % found (Plasmopara viticola; application rate 0.2 ppm a.i.): 29%
- Efficacy in % found (Plasmopara viticola; application rate 0.4 ppm a.i.): 0%
- Efficacy in % found (Alternaria solani; application rate 25 ppm a.i.): 30%
- Efficacy in % found (Alternaria solani; application rate 200 ppm a.i.): 47%
- Efficacy in % found (Sphaerotheca fuliginea; application rate 25 ppm a.i.): 30%
- Efficacy in % found (Sphaerotheca fuliginea; application rate 50 ppm a.i.): 30%
- Efficacy in % found ([1]; application rate 1000 ppm a.i.): 0%
- Efficacy in % found (Leptosphaeria nodorum; 1000 ppm a.i.): 0%
- Efficacy in % found (Pyrenophora teres; 500 ppm a.i.): 0%
- Efficacy in % found (Pyrenophora teres; 1000 ppm a.i.): 25% and 13%
- Efficacy in % found (Puccinia triticina; 500 ppm a.i.): 13%
- Efficacy in % found (Puccinia triticina; 1000 ppm a.i.): 38%
- Efficacy in % found (Botrytis cinerea; application rate 50 ppm a.i.): 0%
- Efficacy in % found (Botrytis cinerea; application rate 200 ppm a.i.): 0%
- Efficacy in % found (Venturia inaequalis; application rate 200 ppm a.i.): 33%

Molecule: boscalid [(2.3)]
- Efficacy in % found (Puccinia triticina; 250 ppm a.i.): 38%
- Efficacy in % found (Puccinia triticina; 500 ppm a.i.): 56%

Molecule: fenpiclonil [(13.1)]
- Efficacy in % found (Leptosphaeria nodorum; 500 ppm a.i.): 71%
- Efficacy in % found (Pyrenophora teres; 500 ppm a.i.): 88%

Molecule: fludioxonil [(13.2)]
- Efficacy in % found (Leptosphaeria nodorum; 250 ppm a.i.): 43%
- Efficacy in % found (Pyrenophora teres; 125 ppm a.i.): 88%
- Efficacy in % found (Botrytis cinerea; application rate 10 ppm a.i.): 15%

Molecule: mancozeb [(5.19)]
- Efficacy in % found (Alternaria solani; application rate 12.5 ppm a.i.): 18%
- Efficacy in % found (Alternaria solani; application rate 50 ppm a.i.): 76%
- Efficacy in % found (Venturia inaequalis; application rate 12.5 ppm a.i.): 53%

Molecule: phosphorous acid and its salts [(15.62)]
- Efficacy in % found (Phytophthora infestans; application rate 10 ppm a.i.): 19%

Molecule: propiconazole [(1.40)]
- Efficacy in % found (Sphaerotheca fuliginea; application rate 2 ppm a.i.): 78%
- Efficacy in % found (Puccinia triticina; 125 ppm a.i.): 78%

Molecule: propineb [(5.23)]
- Efficacy in % found (Alternaria solani; application rate 50 ppm a.i.): 53%

Molecule: prothioconazole [(1.41)]
- Efficacy in % found (Sphaerotheca fuliginea; application rate 0.5 ppm a.i.): 37%
- Efficacy in % found (Leptosphaeria nodorum; 62.5 ppm a.i.): 43%
- Efficacy in % found (Septoria tritici; 125 ppm a.i.): 86%

Molecule: spiroxamine [(1.46)]
- Efficacy in % found ([1]; application rate 250 ppm a.i.): 94%
- Efficacy in % found (Puccinia triticina; 500 ppm a.i.): 56%

Molecule: tebuconazole [(1.47)]
- Efficacy in % found (Sphaerotheca fuliginea; application rate 4 ppm a.i.): 67%
- Efficacy in % found (Pyrenophora teres; 125 ppm a.i.): 38%
- Efficacy in % found (Venturia inaequalis; application rate 4 ppm a.i.): 43%

Molecule: triadimenol [(1.51)]
- Efficacy in % found (Leptosphaeria nodorum; 250 ppm a.i.): 50% and 43%
